Measured values: PubChem BioAssay (NCI)
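Test compounds were applied to cells in 96-well plates for 48 hours at 5 doses. The concentration for full growth arrest is given as TGI.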

How the values were obtained:
Test in all cases: growth of human tumour cells (NCI), 48 h
NCI-H522 lung = system: NCI-H522 lung
NCI-H23 lung = system: NCI-H23 lung
U251 CNS = system: U251 CNS
SF-539 CNS = system: SF-539 CNS
HT29 colon = system: HT29 colon
SW-620 colon = system: SW-620 colon
COLO 205 colon = system: COLO 205 colon
KM12 colon = system: KM12 colon
A498 renal = system: A498 renal
TK-10 renal = system: TK-10 renal
EKVX NSCLC = system: EKVX NSCLC
HCC-2998 colon = system: HCC-2998 colon
MDA-N = system: MDA-N
IGROV1 ovarian = system: IGROV1 ovarian
K-562 leukemia = system: K-562 leukemia
HCT-15 colon = system: HCT-15 colon
SNB-75 CNS = system: SNB-75 CNS
LOX IMVI melanoma = system: LOX IMVI melanoma
PC-3 prostate = system: PC-3 prostate
NCI-H226 lung = system: NCI-H226 lung
SNB-19 CNS = system: SNB-19 CNS
HL-60(TB) leukemia = system: HL-60(TB) leukemia
MALME-3M melanoma = system: MALME-3M melanoma
SK-MEL-28 melanoma = system: SK-MEL-28 melanoma
SK-OV-3 ovarian = system: SK-OV-3 ovarian
OVCAR-5 ovarian = system: OVCAR-5 ovarian
NCI-H460 lung = system: NCI-H460 lung
T-47D breast = system: T-47D breast
HOP-92 NSCLC = system: HOP-92 NSCLC
SN12C renal = system: SN12C renal
MOLT-4 leukemia = system: MOLT-4 leukemia
RPMI-8226 leukemia = system: RPMI-8226 leukemia
ACHN renal = system: ACHN renal
DU-145 prostate = system: DU-145 prostate
HOP-62 NSCLC = system: HOP-62 NSCLC
SK-MEL-2 melanoma = system: SK-MEL-2 melanoma
BT-549 breast = system: BT-549 breast
UACC-257 melanoma = system: UACC-257 melanoma
SK-MEL-5 melanoma = system: SK-MEL-5 melanoma
HS 578T breast = system: HS 578T breast
CCRF-CEM leukemia = system: CCRF-CEM leukemia
SF-295 CNS = system: SF-295 CNS
OVCAR-3 ovarian = system: OVCAR-3 ovarian
UO-31 renal = system: UO-31 renal
M14 melanoma = system: M14 melanoma
A549 NSCLC = system: A549 NSCLC
OVCAR-4 ovarian = system: OVCAR-4 ovarian
CAKI-1 renal = system: CAKI-1 renal
UACC-62 melanoma = system: UACC-62 melanoma
786-0 renal = system: 786-0 renal
NCI/ADR-RES ovarian = system: NCI/ADR-RES ovarian
MCF7 breast = system: MCF7 breast
HCT-116 colon = system: HCT-116 colon
SR leukemia = system: SR leukemia
OVCAR-8 ovarian = system: OVCAR-8 ovarian
MDA-MB-435 = system: MDA-MB-435
MDA-MB-231 breast = system: MDA-MB-231 breast
SF-268 CNS = system: SF-268 CNS
RXF 393 renal = system: RXF 393 renal

Measured: TGI

NNC(=O)CCCCCCCC(=O)O
> 100 µM: NCI-H522 lung | NCI-H23 lung | U251 CNS | SF-539 CNS | HT29 colon | SW-620 colon | COLO 205 colon | KM12 colon | A498 renal | TK-10 renal | EKVX NSCLC | HCC-2998 colon | MDA-N | IGROV1 ovarian | K-562 leukemia | HCT-15 colon | SNB-75 CNS | LOX IMVI melanoma | PC-3 prostate | NCI-H226 lung | SNB-19 CNS | HL-60(TB) leukemia | MALME-3M melanoma | SK-MEL-28 melanoma | SK-OV-3 ovarian | OVCAR-5 ovarian | NCI-H460 lung | T-47D breast | HOP-92 NSCLC | SN12C renal | MOLT-4 leukemia | RPMI-8226 leukemia | ACHN renal | DU-145 prostate | HOP-62 NSCLC | SK-MEL-2 melanoma | BT-549 breast | UACC-257 melanoma | SK-MEL-5 melanoma | HS 578T breast | CCRF-CEM leukemia | SF-295 CNS | OVCAR-3 ovarian | UO-31 renal | M14 melanoma | A549 NSCLC | OVCAR-4 ovarian | CAKI-1 renal | UACC-62 melanoma | 786-0 renal | NCI/ADR-RES ovarian | MCF7 breast | HCT-116 colon | SR leukemia | OVCAR-8 ovarian | MDA-MB-435 | MDA-MB-231 breast

CCOC(=O)NC(N(C)C(C(C)C)P(=O)(OCC)OCC)(C(F)(F)F)C(F)(F)F (stereo not drawn)
> 100 µM: NCI-H522 lung | NCI-H23 lung | U251 CNS | SF-539 CNS | HT29 colon | SW-620 colon | COLO 205 colon | KM12 colon | A498 renal | TK-10 renal | EKVX NSCLC | MDA-N | IGROV1 ovarian | K-562 leukemia | HCT-15 colon | SNB-75 CNS | LOX IMVI melanoma | PC-3 prostate | NCI-H226 lung | SNB-19 CNS | HL-60(TB) leukemia | MALME-3M melanoma | SK-MEL-28 melanoma | OVCAR-5 ovarian | NCI-H460 lung | T-47D breast | HOP-92 NSCLC | SN12C renal | MOLT-4 leukemia | RPMI-8226 leukemia | ACHN renal | DU-145 prostate | HOP-62 NSCLC | SK-MEL-2 melanoma | UACC-257 melanoma | SK-MEL-5 melanoma | HS 578T breast | CCRF-CEM leukemia | SF-295 CNS | OVCAR-3 ovarian | UO-31 renal | M14 melanoma | A549 NSCLC | OVCAR-4 ovarian | CAKI-1 renal | SF-268 CNS | UACC-62 melanoma | 786-0 renal | NCI/ADR-RES ovarian | MCF7 breast | HCT-116 colon | SR leukemia | OVCAR-8 ovarian | MDA-MB-435 | RXF 393 renal | MDA-MB-231 breast
